# Measurements as given in ChEMBL document CHEMBL1152498, “Minor structural differences of monomethine cyanine derivatives yield strong variation in their interactions with DNA, RNA as well as on their in vitro antiproliferative activity” (Bioorg Med Chem, 2009).
# The source made the active and inactive calls. The calls are words filed in the database; no cut-off is given here.
# What was measured:
# [1] = tested on: Calf thymus DNA; experiment: Binding affinity to calf thymus double stranded DNA at pH 7 by fluorometric titration method; format: nucleic-acid assay; conditions: Bos taurus
# [2] = tested on: Nucleic Acid; experiment: Binding affinity to double stranded RNA at pH 7 by fluorometric titration method; format: nucleic-acid assay
# [3] = tested on: Nucleic Acid; experiment: Binding affinity to poly A-poly U at pH 7 by fluorometric titration method; format: nucleic-acid assay
# [4] = tested on: Calf thymus DNA; experiment: Binding affinity to calf thymus double helix DNA assessed as thermal denaturation-associated change in melting temperature at pH 7 by tangent method; format: nucleic-acid assay; conditions: Bos taurus
# [5] = tested on: Nucleic Acid; experiment: Binding affinity to poly A-poly U assessed as thermal denaturation-associated change in melting temperature at pH 7 by tangent method; format: nucleic-acid assay
# [6] = tested on: Nucleic Acid; experiment: Binding affinity to poly A single stranded RNA at pH 7 by fluorometric titration method; format: nucleic-acid assay
# [7] = tested on: Nucleic Acid; experiment: Binding affinity to poly G single stranded RNA at pH 7 by fluorometric titration method; format: nucleic-acid assay
# [8] = tested on: Nucleic Acid; experiment: Binding affinity to poly C single stranded RNA at pH 7 by fluorometric titration method; format: nucleic-acid assay
# [9] = tested on: Nucleic Acid; experiment: Binding affinity to poly U single stranded RNA at pH 7 by fluorometric titration method; format: nucleic-acid assay
# [10] = tested on: SW-620; experiment: Cytotoxicity against human SW620 cells after 72 hrs by MTT assay; format: functional, cell-based; conditions: SW-620, 72 h
# [11] = tested on: HT-29; experiment: Cytotoxicity against human HT-29 cells after 72 hrs by MTT assay; format: functional, cell-based; conditions: HT-29, 72 h
# [12] = tested on: Caco-2; experiment: Cytotoxicity against human Caco-2 cells after 72 hrs by MTT assay; format: functional, cell-based; conditions: Caco-2, 72 h
# [13] = tested on: HeLa; experiment: Cytotoxicity against human HeLa cells after 72 hrs by MTT assay; format: functional, cell-based
# [14] = tested on: MIA PaCa-2; experiment: Cytotoxicity against human MIAPaCa2 cells after 72 hrs by MTT assay; format: functional, cell-based; conditions: MIA PaCa-2, 72 h
# [15] = Cytotoxicity against human Hep2 cells after 72 hrs by MTT assay; format: cell-based; conditions: HEp-2, 72 h
# [16] = tested on: NCI-H358; experiment: Cytotoxicity against human NCI-H358 cells after 72 hrs by MTT assay; format: functional, cell-based; conditions: NCI-H358, 72 h
# [17] = tested on: K562; experiment: Cytotoxicity against human K562 cells after 72 hrs by MTT assay; format: functional, cell-based; conditions: K562, 72 h
# [18] = tested on: Jurkat; experiment: Cytotoxicity against human Jurkat cells after 72 hrs by MTT assay; format: functional, cell-based
# [19] = tested on: HuT78; experiment: Cytotoxicity against human HUT78 cells after 72 hrs by MTT assay; format: functional, cell-based; conditions: HuT78, 72 h
# [20] = Cytotoxicity against HAEC after 72 hrs by MTT assay; design: species or system Homo sapiens
# [21] = Cytotoxicity against human lymphocytes after 72 hrs by MTT assay; format: cell-based; conditions: Lymphocyte
# [22] = tested on: HeLa; experiment: Cytotoxicity against human HeLa cells at 0.1 uM after 60 mins by DAPI staining-based visible light microscopy; format: functional, cell-based
# [23] = tested on: Nucleic Acid; experiment: Binding affinity to nuclear DNA in human HeLa cells at 0.1 uM after 60 mins by DAPI staining-based fluorescence microscopy; format: cell-based
SMILES,log Ks [1],Activity [2],ΔTm [4],ΔTm [5],log Ks [7],log Ks [8],log Ks [9],IC50 [10],IC50 [11],IC50 [12],IC50 [13],IC50 [14],IC50 [15],IC50 [16],IC50 [17],IC50 [18],IC50 [19],IC50 [20],IC50 [21],Activity [6],other results
CC1=C/C(=C/c2oc3ccccc3[n+]2C)C(C#N)=C2Sc3ccccc3N12.[O-][Cl+3]([O-])([O-])[O-],5.1,Active,4.1 °C,19.5 °C,> 6,< 4,< 4,6800 nM,5.9 µM,9.6 µM,8.2 µM,2200 nM,5500 nM,2400 nM,50 nM,3900 nM,500 nM,50.1 µM,100 nM,,log Ks [3]: 6.8; log Ks [6]: 6.2
COc1ccc2c(c1)SC1=N/C(=C\c3sc4ccccc4[n+]3C)C=C(C)N12.[O-][Cl+3]([O-])([O-])[O-],4.5,Active,3 °C,0 °C,> 6,< 4,< 4,200 nM,0.5 µM,0.8 µM,0.5 µM,60 nM,500 nM,600 nM,1 nM,100 nM,10 nM,3.3 µM,100 nM,Active,log Ks [3]: 4.2; Activity [22]: inactive; Activity [23]: inactive
CC1=C/C(=C/c2oc3ccccc3[n+]2C)N=C2Sc3cc(OCCO)ccc3N12.[O-][Cl+3]([O-])([O-])[O-],4.6,Active,0.8 °C,0 °C,> 6,< 4,< 4,5200 nM,7.2 µM,40 µM,80 µM,8500 nM,6800 nM,9000 nM,70 nM,6600 nM,700 nM,70 µM,590 nM,Active,log Ks [3]: 4.3
COc1ccc2c(c1)SC1=N/C(=C\c3oc4ccccc4[n+]3C)C=C(C)N12.[O-][Cl+3]([O-])([O-])[O-],5,Active,2.7 °C,0 °C,> 6,< 4,< 4,600 nM,0.5 µM,1 µM,2.1 µM,500 nM,700 nM,800 nM,1 nM,500 nM,100 nM,1.1 µM,40 nM,Active,Activity [22]: inactive; Activity [23]: inactive
CC1=C/C(=C/c2sc3ccccc3[n+]2C)N=C2C=CC=CN12.[O-][Cl+3]([O-])([O-])[O-],,inactive,1.9 °C,10.4 °C,,,,7000 nM,5.2 µM,10.1 µM,9.9 µM,1800 nM,3600 nM,2000 nM,90 nM,1300 nM,200 nM,9.6 µM,600 nM,inactive,Activity [1]: inactive; Activity [7]: inactive; Activity [8]: inactive; Activity [9]: inactive
CC1=C/C(=C/c2oc3ccccc3[n+]2C)N=C2Sc3cc(Cl)ccc3N12.[O-][Cl+3]([O-])([O-])[O-],4.6,Active,1 °C,0 °C,> 6,< 4,< 4,5800 nM,5.1 µM,8.2 µM,3.9 µM,2100 nM,7000 nM,1100 nM,60 nM,520 nM,60 nM,50.3 µM,90 nM,Active,log Ks [3]: 4.5
CC1=C/C(=C/c2sc3ccccc3[n+]2C)N=C2Sc3cc(OCCO)ccc3N12.[O-][Cl+3]([O-])([O-])[O-],4.8,Active,1.3 °C,0 °C,> 6,< 4,< 4,550 nM,1.1 µM,> 100 µM,80 µM,510 nM,930 nM,2100 nM,60 nM,900 nM,500 nM,> 200 µM,1200 nM,Active,log Ks [3]: 4.5
CCOc1ccc2c(c1)SC1=N/C(=C\c3oc4ccccc4[n+]3C)C=C(C)N12.[O-][Cl+3]([O-])([O-])[O-],4.7,Active,4 °C,0 °C,> 6,< 4,< 4,100 nM,0.6 µM,0.8 µM,2 µM,100 nM,500 nM,100 nM,1 nM,90 nM,50 nM,1 µM,10 nM,Active,log Ks [3]: 4.5
